PubChem BioAssay AID1919004 (Molecular Pharmacology Branch, DTP, NCI, 2023)

Tested on: 883617-216-R-J1-PDC complex spheroids, growth, % test/control
Test: Anticancer human tumor 883617-216-R-J1-PDC patient-derived bladder carcinoma cell line growth inhibition [AhR]
Conditions: for IC50: curve of first compound; for viability, T/C: stronger effect = lower value
In short: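 Spheroids combined tumor cells with HUVEC endothelial cells and human MSCs as stroma. AhR antagonists were paired with standard or investigational drugs, each dosed in half-log steps down from near clinical Cmax, or from 10 microM where Cmax was unknown.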
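Note: exposure lasted 7 days after dosing on day 3 of spheroid growth.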

With CC1(C)CCC(CN2CCN(c3ccc(C(=O)NS(=O)(=O)c4ccc(NCC5CCOCC5)c([N+](=O)[O-])c4)c(Oc4cnc5[nH]ccc5c4)c3)CC2)=C(c2ccc(Cl)cc2)C1 + Cc1cncc(-c2nc(NCCc3c[nH]c4ccccc34)c3ncn(C(C)C)c3n2)c1 as the compound, how does the IC50 (second compound 0.1 µM) read?
Its IC50 is 6.16 µM.

What about the IC50 (second compound 0.316 µM) of the same compound?
Its IC50 is 6.29 µM.

What about the IC50 (second compound 1 µM) of the same compound?
Its IC50 is 5.92 µM.

What about the IC50 (second compound 3.16 µM) of the same compound?
Its IC50 is 8.25 µM.

And the IC50 (second compound 10 µM)?
The IC50 was greater than 10 µM.

And the viability, T/C (second compound 0.1 µM, first compound 0.0316 µM)?
Its viability, T/C is 85.7%.

And the viability, T/C (second compound 0.1 µM, first compound 0.1 µM)?
The viability, T/C was 88.8%.

What about the viability, T/C (second compound 0.1 µM, first compound 0.316 µM) of the same compound?
Its viability, T/C is 90%.

And the viability, T/C (second compound 0.1 µM, first compound 1 µM)?
Its viability, T/C is 78.6%.

And the viability, T/C (second compound 0.1 µM, first compound 3.16 µM)?
Its viability, T/C is 80.4%.

And the viability, T/C (second compound 0.1 µM, first compound 10 µM)?
Its viability, T/C is 28.5%.

And the viability, T/C (second compound 0.316 µM, first compound 0.0316 µM)?
The viability, T/C was 97.3%.

What about the viability, T/C (second compound 0.316 µM, first compound 0.1 µM) of the same compound?
The viability, T/C was 99.2%.

What about the viability, T/C (second compound 0.316 µM, first compound 0.316 µM) of the same compound?
The viability, T/C was 94.2%.

And the viability, T/C (second compound 0.316 µM, first compound 1 µM)?
Its viability, T/C is 88.5%.

And the viability, T/C (second compound 0.316 µM, first compound 3.16 µM)?
The viability, T/C was 82.2%.

And the viability, T/C (second compound 0.316 µM, first compound 10 µM)?
Its viability, T/C is 29%.

What about the viability, T/C (second compound 1 µM, first compound 0.0316 µM) of the same compound?
Its viability, T/C is 86.5%.

What about the viability, T/C (second compound 1 µM, first compound 0.1 µM) of the same compound?
The viability, T/C was 89.7%.

What about the viability, T/C (second compound 1 µM, first compound 0.316 µM) of the same compound?
The viability, T/C was 87.7%.

And the viability, T/C (second compound 1 µM, first compound 1 µM)?
The viability, T/C was 84.5%.

What about the viability, T/C (second compound 1 µM, first compound 3.16 µM) of the same compound?
The viability, T/C was 82.5%.

And the viability, T/C (second compound 1 µM, first compound 10 µM)?
Its viability, T/C is 23%.

And the viability, T/C (second compound 3.16 µM, first compound 0.0316 µM)?
Its viability, T/C is 99.1%.

And the viability, T/C (second compound 3.16 µM, first compound 0.1 µM)?
The viability, T/C was 108%.

What about the viability, T/C (second compound 3.16 µM, first compound 0.316 µM) of the same compound?
The viability, T/C was 115%.

And the viability, T/C (second compound 3.16 µM, first compound 1 µM)?
The viability, T/C was 97.2%.

What about the viability, T/C (second compound 3.16 µM, first compound 3.16 µM) of the same compound?
Its viability, T/C is 106%.

And the viability, T/C (second compound 3.16 µM, first compound 10 µM)?
Its viability, T/C is 38.9%.

What about the viability, T/C (second compound 10 µM, first compound 0.0316 µM) of the same compound?
The viability, T/C was 49.4%.

And the viability, T/C (second compound 10 µM, first compound 0.1 µM)?
Its viability, T/C is 52.6%.

And the viability, T/C (second compound 10 µM, first compound 0.316 µM)?
The viability, T/C was 57.1%.

And the viability, T/C (second compound 10 µM, first compound 1 µM)?
Its viability, T/C is 61.4%.

What about the viability, T/C (second compound 10 µM, first compound 3.16 µM) of the same compound?
The viability, T/C was 72%.

What about the viability, T/C (second compound 10 µM, first compound 10 µM) of the same compound?
Its viability, T/C is 37.3%.
